From the supplement of paper PMC11061612

What was measured:
COLO-679 (Melanoma) = assay: Bliss excess, mean over the matrix (fraction); higher = more synergy
In short: (§1)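 After 24 hours at 37°C and 5% CO2 in 1536-well plates, cells in DMEM/F12 or RPMI plus 10% FBS received two-drug dose matrices for 72 hours. Viability came from CellTiter-Glo 2.0 luminescence and was scaled as inhibition, anchored at 0 by vehicle wells and at 1 by blank wells. Combination Emax is taken as the second-highest inhibition in the matrix, and Bliss excess as the observed combination effect less EA + EB − EA·EB, with EA and EB the single-agent effects.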

[1] = tested on: Ca-Ski (Cervical Carcinoma); assay: as above
In short: as §1

[2] = tested on: HAL-01 (B-Lymphoblastic Leukemia); assay: as above
In short: as §1

[3] = tested on: HCC1500 (Breast Carcinoma); assay: as above
In short: as §1

[4] = tested on: HCC1937 (Breast Carcinoma); assay: as above
In short: as §1

[5] = tested on: HCC2998 (Colorectal Carcinoma); assay: as above
In short: as §1

[6] = tested on: KGN (Other Solid Carcinomas); assay: as above
In short: as §1

[7] = tested on: KMRC-1 (Kidney Carcinoma); assay: as above
In short: as §1

[8] = tested on: ML-2 (Acute Myeloid Leukemia); assay: as above
In short: as §1

[9] = tested on: MOLT-4 (T-Lymphoblastic Leukemia); assay: as above
In short: as §1

[10] = tested on: MV-4-11 (Acute Myeloid Leukemia); assay: as above
In short: as §1

[11] = tested on: Mo-T (Other Blood Carcinomas); assay: as above
In short: as §1

[12] = tested on: NCI-H1092 (Small Cell Lung Carcinoma); assay: as above
In short: as §1

[13] = tested on: NCI-H1838 (Lung Adenocarcinoma); assay: as above
In short: as §1

[14] = tested on: OE33 (Esophageal Adenocarcinoma); assay: as above
In short: as §1

SK-N-AS (Neuroblastoma) = assay: as above
In short: as §1

[15] = tested on: SW872 (Other Solid Carcinomas); assay: as above
In short: as §1

[16] = tested on: SW982 (Other Solid Carcinomas); assay: as above
In short: as §1

[17] = tested on: Ca-Ski (Cervical Carcinoma); assay: combination Emax (second highest fraction inhibited in the dose matrix, 72 h); higher = more inhibition; extreme values may be limits of the assay
In short: as §1

[18] = tested on: HCC1937 (Breast Carcinoma); assay: as above
In short: as §1
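For Bliss excess, mean over the matrix in this document: after 72 h of two-drug dosing.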

Row | SMILES | Bliss excess (COLO-679 (Melanoma)) | Bliss excess [1] | Bliss excess [2] | Bliss excess [3] | Bliss excess [4] | Bliss excess [5] | Bliss excess [6] | Bliss excess [7] | Bliss excess [8] | Bliss excess [9] | Bliss excess [10] | Bliss excess [11] | Bliss excess [12] | Bliss excess [13] | Bliss excess [14] | Bliss excess (SK-N-AS (Neuroblastoma)) | Bliss excess [15] | Bliss excess [16] | combination Emax [17] | combination Emax [18]
1 | CC(=O)c1c(C)c2cnc(Nc3ccc(N4CCNCC4)cn3)nc2n(C2CCCC2)c1=O [Palbociclib] + Cc1c2c(nn1C)CSCc1cc(n(C)n1)CSc1cc(c3ccccc3c1)OCCCc1c(C(=O)O)n(C)c3c-2c(Cl)ccc13 [AZD5991] (first compound max 10 µM, 7x7, partner max 1 µM) | -0.107 | -0.0239 | 0.0597 | -0.0145 | -0.0498 | -0.0746 | -0.0665 | -0.0363 | 0.0133 | -0.0073 | 0.0127 | -0.0208 | -0.0646 | -0.0634 | -0.0041 | -0.006 | -0.0184 | -0.0151 | 0.342 | 0.242
2 | Cc1c2c(nn1C)CSCc1cc(n(C)n1)CSc1cc(c3ccccc3c1)OCCCc1c(C(=O)O)n(C)c3c-2c(Cl)ccc13 [AZD5991] + C1CN(CCC1(C(=O)N[C@@H](CCO)C2=CC=C(C=C2)Cl)N)C3=NC=NC4=C3C=CN4 [Capivasertib] (first compound max 1 µM, 7x7, partner max 3 µM) | -0.0179 | 0.0269 | 0.0298 | 0.0467 | -0.0108 | -0.0434 | 0.0051 | -0.0076 | -0.0159 | 0.0964 | -0.0089 | -0.0046 | 0.0204 | 0.0017 | -0.0328 | 0.0017 | 0.0057 | -0.0074 | 0.609 | 0.456
3 | CN(CCO)CC[C@H](CSc1ccccc1)Nc1ccc(S(=O)(=O)NC(=O)c2ccc(N3CCC([C@@H](O)c4ccccc4-c4ccc(Cl)cc4)CC3)cc2)cc1S(=O)(=O)C(F)(F)F [AZD4320] + CN(C)CCCOc1ccc(-c2ccc3ncc4c(c3c2)n(C2CCOCC2)c(=O)n4C)cn1 [AZD0156] (first compound max 1 µM, 7x7, partner max 1 µM) | -0.068 | -0.0173 | 0.024 | 0.0352 | 0.0007 | -0.01 | -0.0231 | -0.0245 | -0.0056 | 0.0052 | -0.034 | -0.0982 | -0.0078 | 0.0135 | -0.0312 | -0.0331 | -0.0107 | -0.0487 | 0.268 | 0.439
4 | CCN(CCO)CCCOc1ccc2c(Nc3cc(CC(=O)Nc4cccc(F)c4)[nH]n3)ncnc2c1 [AZD2811] + O=C(c1cc(Cc2n[nH]c(=O)c3ccccc23)ccc1F)N1CCN(C(=O)C2CC2)CC1 [Olaparib] (first compound max 1 µM, 7x7, partner max 10 µM) | -0.0569 | 0.0242 | -0.043 | 0.0231 | -0.0059 | 0.0257 | -0.0152 | -0.015 | -0.0595 | -0.0029 | -0.0339 | -0.027 | -0.0196 | -0.0348 | -0.0094 | 0.0255 | 0.017 | -0.0365 | 0.289 | 0.238
5 | COc1cccc2c1C(=O)c1c(O)c3c(c(O)c1C2=O)C[C@@](O)(C(=O)CO)C[C@@H]3O[C@H]1C[C@H](N)[C@H](O)[C@H](C)O1 [Doxorubicin] + Cc1cc2ncnn2cc1Nc1ncc2c(n1)n(C1CCOCC1)c(=O)n2C [AZD7648] (first compound max 1 µM, 7x7, partner max 10 µM) | 0.0178 | 0.0498 | 0.0877 | 0.0605 | 0.005 | 0.0344 | 0.0694 | 0.0835 | 0.0281 | 0.135 | 0.137 | 0.0096 | -0.0037 | -0.0577 | 0.0114 | 0.0664 | 0.0299 | 0.0226 | 0.913 | 0.439
6 | NC1(C(=O)N[C@@H](CCO)c2ccc(Cl)cc2)CCN(c2ncnc3[nH]ccc23)CC1 [Capivasertib] + COc1nnc2ccc(N3CCC(c4ccc(OCCN5CCN(C)C(=O)[C@H]5C)cc4)CC3)nn12 [AZD5153] (first compound max 10 µM, 7x7, partner max 1 µM) | -0.122 | 0.0046 | -0.0429 | 0.0118 | 0.0189 | -0.0046 | 0.0358 | 0.0129 | -0.0187 | 0.0908 | 0.0074 | -0.0717 | -0.0087 | 0.0032 | 0.0052 | -0.0159 | -0.0399 | -0.0535 | 0.591 | 0.44
7 | NC1(C(=O)N[C@@H](CCO)c2ccc(Cl)cc2)CCN(c2ncnc3[nH]ccc23)CC1 [Capivasertib] + Cn1cnc2c(F)c(Nc3ccc(Br)cc3Cl)c(C(=O)NOCCO)cc21 [Selumetinib] (first compound max 10 µM, 7x7, partner max 10 µM) | -0.0912 | 0.0246 | 0.0548 | 0.0004 | -0.0079 | -0.0654 | -0.0041 | 0.0071 | 0.0654 | 0.0752 | 0.0842 | 0.0563 | -0.0225 | -0.0124 | 0.0301 | 0.0046 | 0.0256 | 0.0235 | 0.597 | 0.527
